Like-named read-outs stand apart in the source and are kept apart here.
Target: T1, SIRT1 (Homo sapiens, UniProt Q96EB6)
T1 sequence (Q96EB6 1-747): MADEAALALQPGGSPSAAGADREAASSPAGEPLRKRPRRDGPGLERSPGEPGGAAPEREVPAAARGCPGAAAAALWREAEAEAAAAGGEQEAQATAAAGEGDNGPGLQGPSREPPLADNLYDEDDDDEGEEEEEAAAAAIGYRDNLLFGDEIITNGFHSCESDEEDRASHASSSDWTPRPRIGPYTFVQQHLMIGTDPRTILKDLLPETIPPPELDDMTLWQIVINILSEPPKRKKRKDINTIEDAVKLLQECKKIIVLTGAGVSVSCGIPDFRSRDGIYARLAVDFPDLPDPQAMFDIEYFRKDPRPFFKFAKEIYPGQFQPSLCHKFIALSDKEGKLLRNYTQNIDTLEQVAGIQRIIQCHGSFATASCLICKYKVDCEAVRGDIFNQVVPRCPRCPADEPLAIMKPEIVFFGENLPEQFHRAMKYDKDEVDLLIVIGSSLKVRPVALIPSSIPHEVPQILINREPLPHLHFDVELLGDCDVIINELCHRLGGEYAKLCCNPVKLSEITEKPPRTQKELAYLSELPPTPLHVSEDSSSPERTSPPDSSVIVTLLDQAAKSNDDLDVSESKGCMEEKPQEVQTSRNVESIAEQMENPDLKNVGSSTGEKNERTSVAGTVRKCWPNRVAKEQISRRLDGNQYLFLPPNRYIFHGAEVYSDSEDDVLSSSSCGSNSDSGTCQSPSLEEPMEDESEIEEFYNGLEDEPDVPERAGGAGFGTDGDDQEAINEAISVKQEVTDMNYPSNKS
Test: Trp mass spectrometry assay of SIRT1 activation (Ac-R-H-K-K(Ac)-W-NH2 peptide)
Format: biochemical
Settings: for Emax: 25 min, read-out: TRP MAX RESP (percent maximum fold activation)
In short: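 Mass spectrometry read-out (OAADPR formed, or deacetylated Trp peptide) after a 25 min NAD-dependent deacetylation by E. coli-expressed His-SIRT1, stopped with formic acid.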

[1] = Trp peptide 0.5 μM, 120 μM βNAD+, 10 nM SIRT1, 25 min at 25° C., relative to control (100%)
[2] = Trp peptide 0.5 μM, 120 μM βNAD+, 10 nM SIRT1, 25 min at 25° C.

Compound | Emax [1] | TRP Activity (EC1.5, concentration of test compound that results in 150% activation of SIRT1) [2] | Emax
C[C@@H](NC(=O)c1ccc2c(n1)N(C(=O)Nc1cc(OC[C@@H](O)CO)ncn1)[C@H]1CCN2C1)C(F)(F)F [Example 162, (4S)—N5-(6-((S)-2,3-dihydroxypropoxy)pyrimidin-4-yl)-N7-((R)-1,1,1-trifluoropropan-2-yl)-3,4-dihydro-1,4-methanopyrido[2,3-b][1,4]diazepine-5,7(2H)-dicarboxamide] | > 150% | A (EC1.5<1 μM) | –
C[C@@H](NC(=O)c1ccc2c(n1)N(C(=O)Nc1n[nH]c3ncccc13)[C@H]1CCN2C1)C(F)(F)F [Example 163, (4S)—N5-(1H-pyrazolo[3,4-b]pyridin-3-yl)-N7-((R)-1,1,1-trifluoropropan-2-yl)-3,4-dihydro-1,4-methanopyrido[2,3-b][1,4]diazepine-5,7(2H)-dicarboxamide] | > 150% | A (EC1.5<1 μM) | –
C#Cc1ccnc(NC(=O)N2c3nc(C(=O)NCC(F)(F)F)ccc3N3CC[C@H]2C3)c1 [Example 164, (4S)—N5-(4-ethynylpyridin-2-yl)-N7-(2,2,2-trifluoroethyl)-3,4-dihydro-1,4-methanopyrido[2,3-b][1,4]diazepine-5,7(2H)-dicarboxamide] | > 150% | A (EC1.5<1 μM) | –
C[C@@H](NC(=O)c1ccc2c(n1)N(C(=O)Nc1cc(N3CCOC3=O)ccn1)[C@H]1CCN2C1)C(F)(F)F [Example 165, (4S)—N5-(4-(2-oxooxazolidin-3-yl)pyridin-2-yl)-N7-((R)-1,1,1-trifluoropropan-2-yl)-3,4-dihydro-1,4-methanopyrido[2,3-b][1,4]diazepine-5,7(2H)-dicarboxamide] | > 150% | A (EC1.5<1 μM) | –
C[C@@H](NC(=O)c1ccc2c(n1)N(C(=O)Nc1ncc3[nH]cnc3n1)[C@H]1CCN2C1)C(F)(F)F [Example 166, (4S)—N5-(7H-purin-2-yl)-N7-((R)-1,1,1-trifluoropropan-2-yl)-3,4-dihydro-1,4-methanopyrido[2,3-b][1,4]diazepine-5,7(2H)-dicarboxamide] | > 150% | A (EC1.5<1 μM) | –
CC(=O)Nc1ccnc(NC(=O)N2c3nc(C(=O)NCC(F)(F)F)ccc3N3CC[C@H]2C3)c1 [Example 167, (4S)—N5-(4-acetamidopyridin-2-yl)-N7-(2,2,2-trifluoroethyl)-3,4-dihydro-1,4-methanopyrido[2,3-b][1,4]diazepine-5,7(2H)-dicarboxamide] | > 150% | A (EC1.5<1 μM) | –
CNC(=O)c1ccc(NC(=O)N2c3nc(C(=O)NCC(F)(F)F)ccc3N3CC[C@H]2C3)nc1 [Example 168, (4S)—N5-(5-(methylcarbamoyl)pyridin-2-yl)-N7-(2,2,2-trifluoroethyl)-3,4-dihydro-1,4-methanopyrido[2,3-b][1,4]diazepine-5,7(2H)-dicarboxamide] | > 150% | A (EC1.5<1 μM) | –
Cc1ncc(-c2cc(NC(=O)N3c4nc(C(=O)NCC(F)(F)F)ccc4N4CC[C@H]3C4)ncn2)o1 [Example 169, (4S)—N5-(6-(2-methyloxazol-5-yl)pyrimidin-4-yl)-N7-(2,2,2-trifluoroethyl)-3,4-dihydro-1,4-methanopyrido[2,3-b][1,4]diazepine-5,7(2H)-dicarboxamide] | > 150% | A (EC1.5<1 μM) | –
C[C@@H](NC(=O)c1ccc2c(n1)N(C(=O)Nc1cc3cn[nH]c3cn1)[C@H]1CCN2C1)C(F)(F)F [Example 170, (4S)—N5-(1H-pyrazolo[3,4-c]pyridin-5-yl)-N7-((R)-1,1,1-trifluoropropan-2-yl)-3,4-dihydro-1,4-methanopyrido[2,3-b][1,4]diazepine-5,7(2H)-dicarboxamide] | > 150% | A (EC1.5<1 μM) | –
O=C(NCc1ccccc1)c1ccc2c(n1)N(C(=O)Nc1cc(OC[C@H](O)CO)ccn1)[C@H]1CCN2C1 [Example 171, (4S)—N7-benzyl-N5-(4-((R)-2,3-dihydroxypropoxy)pyridin-2-yl)-3,4-dihydro-1,4-methanopyrido[2,3-b][1,4]diazepine-5,7(2H)-dicarboxamide] | > 150% | A (EC1.5<1 μM) | –
CC(C)c1ccc(NC(=O)N2c3nc(C(=O)NCC(F)(F)F)ccc3N3CC[C@H]2C3)nc1 [Example 172, (4S)—N5-(5-isopropylpyridin-2-yl)-N7-(2,2,2-trifluoroethyl)-3,4-dihydro-1,4-methanopyrido[2,3-b][1,4]diazepine-5,7(2H)-dicarboxamide] | > 150% | A (EC1.5<1 μM) | –
C[C@@H](NC(=O)c1ccc2c(n1)N(C(=O)Nc1ncc(OC[C@H](O)CO)cn1)[C@H]1CCN2C1)C(F)(F)F [Example 173, (4S)—N5-(5-((R)-2,3-dihydroxypropoxy)pyrimidin-2-yl)-N7-((R)-1,1,1-trifluoropropan-2-yl)-3,4-dihydro-1,4-methanopyrido[2,3-b][1,4]diazepine-5,7(2H)-dicarboxamide] | > 150% | A (EC1.5<1 μM) | –
O=C(NCC(F)(F)F)c1ccc2c(n1)N(C(=O)Nc1ccc(C3CC3)cn1)[C@H]1CCN2C1 [Example 174, (4S)—N5-(5-cyclopropylpyridin-2-yl)-N7-(2,2,2-trifluoroethyl)-3,4-dihydro-1,4-methanopyrido[2,3-b][1,4]diazepine-5,7(2H)-dicarboxamide] | > 150% | A (EC1.5<1 μM) | –
Cc1c[nH]c2nc(NC(=O)N3c4nc(C(=O)N[C@H](C)C(F)(F)F)ccc4N4CC[C@H]3C4)ncc12 [Example 175, (4S)—N5-(5-methyl-7H-pyrrolo[2,3-d]pyrimidin-2-yl)-N7-((R)-1,1,1-trifluoropropan-2-yl)-3,4-dihydro-1,4-methanopyrido[2,3-b][1,4]diazepine-5,7(2H)-dicarboxamide] | > 150% | A (EC1.5<1 μM) | –
Cc1c[nH]c2nc(NC(=O)N3c4nc(C(=O)NCC(F)(F)F)ccc4N4CC[C@H]3C4)ncc12 [Example 176, (4S)—N5-(5-methyl-7H-pyrrolo[2,3-d]pyrimidin-2-yl)-N7-(2,2,2-trifluoroethyl)-3,4-dihydro-1,4-methanopyrido[2,3-b][1,4]diazepine-5,7(2H)-dicarboxamide] | – | A (EC1.5<1 μM) | > 150%
C[C@@H](NC(=O)c1ccc2c(n1)N(C(=O)Nc1ncc(OC[C@@H](O)CO)cn1)[C@H]1CCN2C1)C(F)(F)F [Example 177, (4S)—N5-(5-((S)-2,3-dihydroxypropoxy)pyrimidin-2-yl)-N7-((R)-1,1,1-trifluoropropan-2-yl)-3,4-dihydro-1,4-methanopyrido[2,3-b][1,4]diazepine-5,7(2H)-dicarboxamide] | > 150% | B (EC1.5 1-25 μM) | –
C=CCNC(=O)c1ccc2c(n1)N(C(=O)Nc1cc(OC[C@H](O)CO)ccn1)[C@H]1CCN2C1 [Example 178, (4S)—N7-allyl-N5-(4-((R)-2,3-dihydroxypropoxy)pyridin-2-yl)-3,4-dihydro-1,4-methanopyrido[2,3-b][1,4]diazepine-5,7(2H)-dicarboxamide] | > 150% | B (EC1.5 1-25 μM) | –
C=CCNC(=O)c1ccc2c(n1)N(C(=O)Nc1ccccn1)[C@H]1CCN2C1 [Example 179, (4S)—N7-allyl-N5-(pyridin-2-yl)-3,4-dihydro-1,4-methanopyrido[2,3-b][1,4]diazepine-5,7(2H)-dicarboxamide] | > 150% | A (EC1.5<1 μM) | –
O=C(NCCO)c1ccnc(NC(=O)N2c3nc(C(=O)NCC(F)(F)F)ccc3N3CC[C@H]2C3)c1 [Example 180, (4S)—N5-(4-((2-hydroxyethyl)carbamoyl)pyridin-2-yl)-N7-(2,2,2-trifluoroethyl)-3,4-dihydro-1,4-methanopyrido[2,3-b][1,4]diazepine-5,7(2H)-dicarboxamide] | > 150% | A (EC1.5<1 μM) | –

Reference: patent publication US10072011B2, “Substituted bridged urea analogs as sirtuin modulators” (GlaxoSmithKline Intellectual Property (No.2) Limited, priority 2014, dated 2018)
